{"source": "patent US6642216B2", "about": "“Isoprenoid pathway inhibitors for stimulating bone growth” (ZymoGenetics Corporation, priority 1996, dated 2003)", "key": {"BMP-2 promoter": {"system": "BMP-2 promoter", "assay": "ABA assay: BMP-2 promoter-luciferase reporter in 2T3-BMP-2-LUC osteoblast cells", "type": "cell-based, mouse", "description": "These transformed cells are then evaluated for the production of the reporter gene product; compounds that activate the BMP promoter will drive production of the reporter protein, which can be readily assayed.\nThe cells were cultured using α-MEM, 10% FCS with 1% penicillin/streptomycin and 1% glutamine (“plating medium”), and were split 1:5 once per week. For the assay, the cells were resuspended in a plating medium containing 4% FCS, plated in microtiter plates at a concentration of 5×10^3 cells (in 50 μl)/well, and incubated for 24 hours at 37° C. in 5% CO2. To initiate the assay, 50 μl of the test compound or the control in DMSO was added at 2× concentration to each well, so that the final volume was 100 μl. The final serum concentration was 2% FCS, and the final DMSO concentration was 1%.\nThe treated cells were incubated for 24 hours at 37° C. and 5% CO2. The medium was then removed, and the cells were rinsed three times with PBS. After removal of excess PBS, 25 μl of 1× cell culture lysing reagent (Promega #E153A) was added to each well and incubated for at least ten minutes. Optionally, the plates/samples could be frozen at this point. To each well was added 50 μl of luciferase substrate (Promega #E152A; 10 ml Promega luciferase assay buffer per 7 mg Promega luciferase assay substrate). Luminescence was measured on an automated 96-well luminometer, and was expressed as either picograms of luciferase activity per well or as picograms of luciferase activity per microgram of protein.\nAlternatively, the reactivity of a compound to be tested can be compared directly to a negative control containing no compound."}, "[1]": {"system": "ICR Swiss white mice calvaria", "assay": "In vivo murine calvarial bone growth assay", "set-up": "species or system mouse", "description": "Male ICR Swiss white mice, aged 4-6 weeks and weighing 13-26 gm, are employed, using 4-5 mice per group. The calvarial bone growth assay is performed as described in PCT application WO 95/24211, incorporated by reference. Briefly, the test compound or appropriate control vehicle is injected into the subcutaneous tissue over the right calvaria of normal mice. Typically, the control vehicle is the vehicle in which the compound was solubilized, and is PBS containing 5% DMSO or is PBS containing Tween (2 μl/10 ml). The animals are sacrificed on day 14 and bone growth measured by histomorphometry. Bone samples for quantitation are cleaned from adjacent tissues and fixed in 10% buffered formalin for 24-48 hours, decalcified in 14% EDTA for 1-3 weeks, processed through graded alcohols; and embedded in paraffin wax. Three to five μm sections of the calvaria are prepared, and representative sections are selected for histomorphometric assessment of the effects on bone formation and bone resorption. Sections are measured by using a camera lucida attachment to trace directly the microscopic image onto a digitizing plate. Bone changes are measured on sections cut 200 μm apart, over 4 adjacent 1×1 mm fields on both the injected and noninjected sides of the calvaria. New bone is identified by its characteristic woven structure, and osteoclasts and osteoblasts are identified by their distinctive morphology. Histomorphometry software (OsteoMeasure, Osteometrix, Inc., Atlanta) is used to process digitizer input to determine cell counts and measure areas or perimeters.\nThe results are reported as a measurement of total bone area (and % increase in area over vehicle control), as shown below."}, "neonatal mouse calvaria": {"system": "neonatal mouse calvaria", "assay": "Neonatal mouse calvaria assay (in vitro bone formation)", "type": "cell-based", "set-up": "Osteoblast Number, % increase over vehicle control / New Bone Area, % increase over vehicle control: concentration or dose not given beside the values", "description": "Briefly, four days after birth, the front and parietal bones of ICR Swiss white mouse pups are removed by microdissection and split along the sagittal suture.\nThree μm sections of the calvaria are prepared. Representative sections are selected for histomorphometric assessment of bone formation or bone resorption. Bone changes are measured on sections cut 200 μm apart. Osteoblasts and osteoclasts are identified by their distinctive morphology.\nSelected compounds and appropriate controls were assayed in vitro (ex vivo) for bone formation activity (described above in “Neonatal Mouse Calvaria Assay (in vitro)”). Histomorphometrical assessments of ex vivo calvaria were carried out using an OsteoMetrics bone morphometry measurement program, according to the manufacturer's instructions. Measurements were determined using either a 10- or 20-fold objective with a standard point counting eyepiece graticule.\nNew bone formation was determined (using a 10× objective) by measuring the new bone area formed in one field in 3 representative sections of each bone (4 bones per group). Each measurement was carried out ½ field distance from the end of the suture. Both total bone and old bone area were measured. Data were expressed as new bone area in mm^2.\nOsteoblast numbers were determined by point counting. The number of osteoblast cells lining the bone surface on both sides of the bone were counted in one field using a 20× objective. Data were expressed as osteoblast numbers/mm of bone surface.\nThe results were calculated as new bone area in mm^2×10^−3, as above."}, "[2]": {"conditions": "Experiment 3, 8.88178E μg/ml (0.002193 μM lovastatin, 0.002087 μM fluvastatin)"}}}
{"molecule": "CC[C@H](C)C(=O)O[C@H]1C[C@@H](C)C=C2C=C[C@H](C)[C@H](CC[C@@H]3C[C@@H](O)CC(=O)O3)[C@H]21", "note": "[Lovastatin, lovastatin]", "values": [{"measurement": "dose-dependent stimulatory effect in the ABA assay", "setting": "BMP-2 promoter", "value": "dose-dependent stimulatory effect"}, {"measurement": "% 59-0008 Response", "setting": "BMP-2 promoter; Experiment 1, 0.195312 μg/ml", "value": 22.840, "unit": "%"}, {"measurement": "Fold increase over negative control", "setting": "BMP-2 promoter; Experiment 1, 0.195312 μg/ml", "value": 2.011, "unit": "fold"}, {"measurement": "% 59-0008 Response", "setting": "BMP-2 promoter; Experiment 1, 0.390625 μg/ml", "value": 27.830, "unit": "%"}, {"measurement": "Fold increase over negative control", "setting": "BMP-2 promoter; Experiment 1, 0.390625 μg/ml", "value": 2.232, "unit": "fold"}, {"measurement": "% 59-0008 Response", "setting": "BMP-2 promoter; Experiment 1, 0.78125 μg/ml", "value": 35.220, "unit": "%"}, {"measurement": "Fold increase over negative control", "setting": "BMP-2 promoter; Experiment 1, 0.78125 μg/ml", "value": 2.559, "unit": "fold"}, {"measurement": "% 59-0008 Response", "setting": "BMP-2 promoter; Experiment 1, 1.5625 μg/ml", "value": 67.080, "unit": "%"}, {"measurement": "Fold increase over negative control", "setting": "BMP-2 promoter; Experiment 1, 1.5625 μg/ml", "value": 3.970, "unit": "fold"}, {"measurement": "% 59-0008 Response", "setting": "BMP-2 promoter; Experiment 1, 3.125 μg/ml", "value": 111.730, "unit": "%"}, {"measurement": "Fold increase over negative control", "setting": "BMP-2 promoter; Experiment 1, 3.125 μg/ml", "value": 5.947, "unit": "fold"}, {"measurement": "% 59-0008 Response", "setting": "BMP-2 promoter; Experiment 1, 6.25 μg/ml", "value": 126.230, "unit": "%"}, {"measurement": "Fold increase over negative control", "setting": "BMP-2 promoter; Experiment 1, 6.25 μg/ml", "value": 6.589, "unit": "fold"}, {"measurement": "% 59-0008 Response", "setting": "BMP-2 promoter; Experiment 1, 12.5 μg/ml", "value": 153.790, "unit": "%"}, {"measurement": "Fold increase over negative control", "setting": "BMP-2 promoter; Experiment 1, 12.5 μg/ml", "value": 7.809, "unit": "fold"}, {"measurement": "% 59-0008 Response", "setting": "BMP-2 promoter; Experiment 1, 25 μg/ml", "value": 144.730, "unit": "%"}, {"measurement": "Fold increase over negative control", "setting": "BMP-2 promoter; Experiment 1, 25 μg/ml", "value": 7.408, "unit": "fold"}, {"measurement": "% 59-0008 Response", "setting": "BMP-2 promoter; Experiment 1, 50 μg/ml", "value": "−22.510", "unit": "%"}, {"measurement": "Fold increase over negative control", "setting": "BMP-2 promoter; Experiment 1, 50 μg/ml", "value": 0.003, "unit": "fold"}, {"measurement": "% 59-0008 Response", "setting": "BMP-2 promoter; Experiment 1, 200 μg/ml", "value": "−22.650", "unit": "%"}, {"measurement": "Fold increase over negative control", "setting": "BMP-2 promoter; Experiment 1, 200 μg/ml", "value": "−0.003", "unit": "fold"}, {"measurement": "% 59-0008 Response", "setting": "BMP-2 promoter; Experiment 3, 0.002842 μg/ml", "value": 1.050, "unit": "%"}, {"measurement": "Fold increase over negative control", "setting": "BMP-2 promoter; Experiment 3, 0.002842 μg/ml", "value": 1.032, "unit": "fold"}, {"measurement": "% 59-0008 Response", "setting": "BMP-2 promoter; Experiment 3, 0.009094 μg/ml", "value": 2.720, "unit": "%"}, {"measurement": "Fold increase over negative control", "setting": "BMP-2 promoter; Experiment 3, 0.009094 μg/ml", "value": 1.083, "unit": "fold"}, {"measurement": "% 59-0008 Response", "setting": "BMP-2 promoter; Experiment 3, 0.029103 μg/ml", "value": 1.550, "unit": "%"}, {"measurement": "Fold increase over negative control", "setting": "BMP-2 promoter; Experiment 3, 0.029103 μg/ml", "value": 1.048, "unit": "fold"}, {"measurement": "% 59-0008 Response", "setting": "BMP-2 promoter; Experiment 3, 0.093132 μg/ml", "value": 3.210, "unit": "%"}, {"measurement": "Fold increase over negative control", "setting": "BMP-2 promoter; Experiment 3, 0.093132 μg/ml", "value": 1.099, "unit": "fold"}, {"measurement": "% 59-0008 Response", "setting": "BMP-2 promoter; Experiment 3, 0.298023 μg/ml", "value": 10.860, "unit": "%"}, {"measurement": "Fold increase over negative control", "setting": "BMP-2 promoter; Experiment 3, 0.298023 μg/ml", "value": 1.333, "unit": "fold"}, {"measurement": "% 59-0008 Response", "setting": "BMP-2 promoter; Experiment 3, 0.953674 μg/ml", "value": 35.300, "unit": "%"}, {"measurement": "Fold increase over negative control", "setting": "BMP-2 promoter; Experiment 3, 0.953674 μg/ml", "value": 2.083, "unit": "fold"}, {"measurement": "% 59-0008 Response", "setting": "BMP-2 promoter; Experiment 3, 3.051757 μg/ml", "value": 103.260, "unit": "%"}, {"measurement": "Fold increase over negative control", "setting": "BMP-2 promoter; Experiment 3, 3.051757 μg/ml", "value": 4.169, "unit": "fold"}, {"measurement": "% 59-0008 Response", "setting": "BMP-2 promoter; Experiment 3, 9.765625 μg/ml", "value": 148.030, "unit": "%"}, {"measurement": "Fold increase over negative control", "setting": "BMP-2 promoter; Experiment 3, 9.765625 μg/ml", "value": 5.543, "unit": "fold"}, {"measurement": "% 59-0008 Response", "setting": "BMP-2 promoter; Experiment 3, 31.25 μg/ml", "value": 166.770, "unit": "%"}, {"measurement": "Fold increase over negative control", "setting": "BMP-2 promoter; Experiment 3, 31.25 μg/ml", "value": 6.118, "unit": "fold"}, {"measurement": "% 59-0008 Response", "setting": "BMP-2 promoter; [2]", "value": 0.620, "unit": "%"}, {"measurement": "Fold increase over negative control", "setting": "BMP-2 promoter; [2]", "value": 1.019, "unit": "fold"}, {"measurement": "% increase in total bone area over vehicle control", "setting": "[1]; 0.1 mg/kg/day", "value": 0, "unit": "%"}, {"measurement": "Total Bone Area", "setting": "[1]; 0.1 mg/kg/day", "value": 162, "unit": "μm^2"}, {"measurement": "% increase in total bone area over vehicle control", "setting": "[1]; 1 mg/kg/day", "value": 41, "unit": "%"}, {"measurement": "Total Bone Area", "setting": "[1]; 1 mg/kg/day", "value": 237, "unit": "μm^2"}, {"measurement": "% increase in total bone area over vehicle control", "setting": "[1]; 5 mg/kg/day", "value": 40, "unit": "%"}, {"measurement": "Total Bone Area", "setting": "[1]; 5 mg/kg/day", "value": 235, "unit": "μm^2"}, {"measurement": "% increase in total bone area over vehicle control", "setting": "[1]; 10 mg/kg/day", "value": 42, "unit": "%"}, {"measurement": "Total Bone Area", "setting": "[1]; 10 mg/kg/day", "value": 239, "unit": "μm^2"}, {"measurement": "bone stimulatory effect compared with 12.5 μg/kg/day bFGF", "setting": "[1]; 10 mg/kg/day", "value": "comparable"}, {"measurement": "effect on total bone area", "setting": "[1]; varying doses", "value": "dose-dependent increase in total bone area"}, {"measurement": "inducing bone formation, compared with BMP-2 and bFGF", "setting": "neonatal mouse calvaria", "value": "as good as, or better than"}, {"measurement": "New Bone Area", "setting": "neonatal mouse calvaria; Experiment 3, 3 days", "value": 8.2, "unit": "mm^2 × 10^−3"}, {"measurement": "New Bone Area, % increase over vehicle control", "setting": "neonatal mouse calvaria; Experiment 3, 3 days", "value": 182, "unit": "%"}, {"measurement": "Osteoblast Number", "setting": "neonatal mouse calvaria; Experiment 3, 3 days", "value": 128, "unit": "Obs/field"}, {"measurement": "Osteoblast Number, % increase over vehicle control", "setting": "neonatal mouse calvaria; Experiment 3, 3 days", "value": 152, "unit": "%"}]}
